Results as given in PubChem BioAssay (NCI).
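Grown in 96-well plates, cells were treated for 48 hours with each compound at five concentrations. Insufficient inhibition: endpoint recorded as highest concentration tested. TGI: total growth inhibition.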

Key:
Assay in all cases: growth of human tumour cells (NCI), 48 h
[1] = tested on: 786-0 renal
[2] = tested on: A498 renal
[3] = tested on: A549 NSCLC
[4] = tested on: ACHN renal
[5] = tested on: BT-549 breast
[6] = tested on: CAKI-1 renal
[7] = tested on: CCRF-CEM leukemia
[8] = tested on: COLO 205 colon
[9] = tested on: DU-145 prostate
[10] = tested on: EKVX NSCLC
[11] = tested on: HCC-2998 colon
[12] = tested on: HCT-116 colon
[13] = tested on: HCT-15 colon
[14] = tested on: HL-60(TB) leukemia
[15] = tested on: HOP-62 NSCLC
[16] = tested on: HOP-92 NSCLC
[17] = tested on: HS 578T breast
[18] = tested on: HT29 colon
[19] = tested on: IGROV1 ovarian
[20] = tested on: K-562 leukemia
[21] = tested on: KM12 colon
[22] = tested on: LOX IMVI melanoma
[23] = tested on: M14 melanoma
[24] = tested on: MALME-3M melanoma
[25] = tested on: MCF7 breast
[26] = tested on: MDA-MB-231 breast
[27] = tested on: MDA-MB-435
[28] = tested on: MDA-N
[29] = tested on: MOLT-4 leukemia
[30] = tested on: NCI-H226 lung
[31] = tested on: NCI-H23 lung
[32] = tested on: NCI-H460 lung
[33] = tested on: NCI-H522 lung
[34] = tested on: NCI/ADR-RES ovarian
[35] = tested on: OVCAR-3 ovarian
[36] = tested on: OVCAR-4 ovarian
[37] = tested on: OVCAR-5 ovarian
[38] = tested on: OVCAR-8 ovarian
[39] = tested on: PC-3 prostate
[40] = tested on: RPMI-8226 leukemia
[41] = tested on: RXF 393 renal
[42] = tested on: SF-268 CNS
[43] = tested on: SF-295 CNS
[44] = tested on: SF-539 CNS
[45] = tested on: SK-MEL-2 melanoma
[46] = tested on: SK-MEL-28 melanoma
[47] = tested on: SK-MEL-5 melanoma
[48] = tested on: SK-OV-3 ovarian
[49] = tested on: SN12C renal
[50] = tested on: SNB-19 CNS
[51] = tested on: SNB-75 CNS
[52] = tested on: SR leukemia
[53] = tested on: SW-620 colon
[54] = tested on: T-47D breast
[55] = tested on: TK-10 renal
[56] = tested on: U251 CNS
[57] = tested on: UACC-257 melanoma
[58] = tested on: UACC-62 melanoma
[59] = tested on: UO-31 renal

Cc1cccc(CC(Cc2ccc(C)cc2C(=O)O)C(=O)O)c1 (stereo not drawn)
TGI [1]: > 100 µM
TGI [2]: > 100 µM
TGI [3]: > 100 µM
TGI [4]: > 100 µM
TGI [5]: > 100 µM
TGI [6]: > 100 µM
TGI [7]: > 100 µM
TGI [8]: > 100 µM
TGI [9]: > 100 µM
TGI [10]: > 100 µM
TGI [11]: > 100 µM
TGI [12]: > 100 µM
TGI [13]: > 100 µM
TGI [14]: > 100 µM
TGI [15]: > 100 µM
TGI [16]: > 100 µM
TGI [17]: > 100 µM
TGI [18]: > 100 µM
TGI [19]: > 100 µM
TGI [20]: > 100 µM
TGI [21]: > 100 µM
TGI [22]: > 100 µM
TGI [23]: > 100 µM
TGI [24]: > 100 µM
TGI [25]: > 100 µM
TGI [26]: > 100 µM
TGI [27]: > 100 µM
TGI [28]: > 100 µM
TGI [29]: > 100 µM
TGI [30]: > 100 µM
TGI [31]: > 100 µM
TGI [32]: > 100 µM
TGI [33]: > 100 µM
TGI [34]: > 100 µM
TGI [35]: > 100 µM
TGI [36]: > 100 µM
TGI [37]: > 100 µM
TGI [38]: > 100 µM
TGI [39]: > 100 µM
TGI [40]: > 100 µM
TGI [41]: > 100 µM
TGI [42]: > 100 µM
TGI [43]: > 100 µM
TGI [44]: > 100 µM
TGI [45]: > 100 µM
TGI [46]: > 100 µM
TGI [47]: > 100 µM
TGI [48]: > 100 µM
TGI [49]: > 100 µM
TGI [50]: > 100 µM
TGI [51]: > 100 µM
TGI [52]: > 100 µM
TGI [53]: > 100 µM
TGI [54]: > 100 µM
TGI [55]: > 100 µM
TGI [56]: > 100 µM
TGI [57]: > 100 µM
TGI [58]: 96.5 µM
TGI [59]: > 100 µM

COC1CC(N)C(O)C(C)O1 (stereo not drawn)
TGI [1]: > 100 µM
TGI [2]: > 100 µM
TGI [4]: > 100 µM
TGI [5]: > 100 µM
TGI [6]: > 100 µM
TGI [7]: > 100 µM
TGI [8]: > 100 µM
TGI [9]: > 100 µM
TGI [10]: > 100 µM
TGI [11]: > 100 µM
TGI [12]: > 100 µM
TGI [13]: > 100 µM
TGI [14]: > 100 µM
TGI [15]: > 100 µM
TGI [16]: > 100 µM
TGI [17]: > 100 µM
TGI [18]: > 100 µM
TGI [19]: > 100 µM
TGI [20]: > 100 µM
TGI [21]: > 100 µM
TGI [22]: > 100 µM
TGI [23]: > 100 µM
TGI [24]: > 100 µM
TGI [25]: > 100 µM
TGI [26]: > 100 µM
TGI [27]: > 100 µM
TGI [28]: > 100 µM
TGI [29]: > 100 µM
TGI [30]: > 100 µM
TGI [31]: > 100 µM
TGI [32]: > 100 µM
TGI [33]: > 100 µM
TGI [34]: > 100 µM
TGI [35]: > 100 µM
TGI [36]: > 100 µM
TGI [37]: > 100 µM
TGI [38]: > 100 µM
TGI [39]: > 100 µM
TGI [40]: > 100 µM
TGI [41]: > 100 µM
TGI [42]: > 100 µM
TGI [43]: > 100 µM
TGI [44]: > 100 µM
TGI [46]: > 100 µM
TGI [47]: > 100 µM
TGI [48]: > 100 µM
TGI [49]: > 100 µM
TGI [50]: > 100 µM
TGI [51]: > 100 µM
TGI [52]: > 100 µM
TGI [53]: > 100 µM
TGI [54]: > 100 µM
TGI [56]: > 100 µM
TGI [57]: > 100 µM
TGI [58]: > 100 µM
TGI [59]: > 100 µM

C#CC(O)/C=C/CCCCCCC#CC/C=C\CC#CCCCCCCCCC(O)C#C (stereo not drawn)
TGI [1]: 5.01 µM
TGI [2]: 28.9 µM
TGI [3]: 25.8 µM
TGI [4]: 29.5 µM
TGI [5]: 20.4 µM
TGI [6]: 9.08 µM
TGI [8]: 7.41 µM
TGI [9]: 24.1 µM
TGI [10]: 10.3 µM
TGI [11]: 9.8 µM
TGI [12]: 7.77 µM
TGI [13]: 10.4 µM
TGI [14]: 3.71 µM
TGI [15]: 12 µM
TGI [16]: 5.05 µM
TGI [17]: 38.3 µM
TGI [18]: 12.3 µM
TGI [19]: 1.12 µM
TGI [20]: > 21.6 µM
TGI [21]: 11.5 µM
TGI [22]: < 0.0261 µM
TGI [24]: 4.41 µM
TGI [25]: 39.5 µM
TGI [26]: 11.8 µM
TGI [27]: 7.43 µM
TGI [28]: 5.48 µM
TGI [30]: 35.5 µM
TGI [31]: 4.17 µM
TGI [32]: 41.5 µM
TGI [33]: 0.526 µM
TGI [34]: 10.2 µM
TGI [35]: 24.5 µM
TGI [36]: 15.7 µM
TGI [37]: 27 µM
TGI [38]: 5.11 µM
TGI [39]: 31.6 µM
TGI [41]: 31.6 µM
TGI [42]: 25.8 µM
TGI [43]: 30.3 µM
TGI [44]: 40.4 µM
TGI [45]: 9.44 µM
TGI [46]: 13.1 µM
TGI [47]: 9.71 µM
TGI [48]: 32.3 µM
TGI [49]: 4.79 µM
TGI [50]: 37.5 µM
TGI [51]: 23.4 µM
TGI [52]: > 22 µM
TGI [53]: 14.2 µM
TGI [54]: 36.3 µM
TGI [55]: 28.2 µM
TGI [56]: > 55.8 µM
TGI [57]: 15.1 µM
TGI [58]: 23 µM
TGI [59]: 1.41 µM

Cc1ccc2c(c1)nc1n2C(N)=Nc2ccccc2S1
TGI [1]: > 100 µM
TGI [2]: > 91.6 µM
TGI [3]: > 100 µM
TGI [4]: > 100 µM
TGI [5]: > 100 µM
TGI [6]: > 100 µM
TGI [8]: > 100 µM
TGI [9]: > 100 µM
TGI [10]: > 100 µM
TGI [11]: > 100 µM
TGI [12]: > 100 µM
TGI [13]: > 100 µM
TGI [14]: 6.86 µM
TGI [15]: > 100 µM
TGI [16]: > 100 µM
TGI [17]: > 100 µM
TGI [18]: > 100 µM
TGI [19]: > 100 µM
TGI [20]: > 100 µM
TGI [21]: > 100 µM
TGI [22]: > 100 µM
TGI [23]: > 100 µM
TGI [24]: > 100 µM
TGI [25]: > 100 µM
TGI [26]: > 100 µM
TGI [27]: > 100 µM
TGI [28]: > 100 µM
TGI [29]: > 100 µM
TGI [30]: > 100 µM
TGI [31]: > 100 µM
TGI [32]: > 100 µM
TGI [33]: > 100 µM
TGI [34]: > 100 µM
TGI [35]: > 100 µM
TGI [36]: > 100 µM
TGI [37]: > 100 µM
TGI [38]: > 100 µM
TGI [39]: > 100 µM
TGI [40]: > 100 µM
TGI [41]: > 100 µM
TGI [42]: > 100 µM
TGI [43]: > 100 µM
TGI [44]: > 100 µM
TGI [45]: > 100 µM
TGI [46]: > 100 µM
TGI [47]: > 100 µM
TGI [48]: > 100 µM
TGI [49]: > 100 µM
TGI [50]: > 100 µM
TGI [51]: > 100 µM
TGI [52]: > 100 µM
TGI [53]: > 100 µM
TGI [54]: > 100 µM
TGI [55]: > 100 µM
TGI [56]: > 100 µM
TGI [57]: > 100 µM
TGI [58]: > 100 µM
TGI [59]: > 100 µM
